The source of these data is publication PMC11087588, “Genetic and functional diversity of β-N-acetylgalactosamine-targeting glycosidases expanded by deep-sea metagenome analysis” (Nature Communications, 2024).

One experiment has as its target T1, NgaDssm (metagenome, UniProt Z9PL66MBS5).
T1 construct: signal peptide removed; pET-47b(+), E. coli BL21 Star (DE3); His tag cut with HRV3C; monomer
T1 sequence (Z9PL66MBS5 4-542): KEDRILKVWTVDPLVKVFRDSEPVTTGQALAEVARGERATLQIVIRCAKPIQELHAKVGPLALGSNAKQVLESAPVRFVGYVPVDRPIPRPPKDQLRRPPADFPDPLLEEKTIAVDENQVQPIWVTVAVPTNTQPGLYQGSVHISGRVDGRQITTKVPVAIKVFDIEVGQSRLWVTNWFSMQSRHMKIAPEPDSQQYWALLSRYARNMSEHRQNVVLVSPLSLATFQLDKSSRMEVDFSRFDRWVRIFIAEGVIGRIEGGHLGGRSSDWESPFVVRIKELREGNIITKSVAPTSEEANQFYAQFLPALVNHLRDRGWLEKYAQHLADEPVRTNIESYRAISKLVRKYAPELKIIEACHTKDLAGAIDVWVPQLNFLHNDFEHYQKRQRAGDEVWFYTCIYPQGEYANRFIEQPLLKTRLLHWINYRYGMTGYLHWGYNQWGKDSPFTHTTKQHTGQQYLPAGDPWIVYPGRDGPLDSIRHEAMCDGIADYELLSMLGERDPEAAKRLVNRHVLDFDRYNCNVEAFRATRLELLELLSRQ
The experiment is described as follows: crystal structure of complex. It counts as binding. Particulars: 5 mM ligand in crystallization; active site, oxazolinium intermediate analogue.

For another experiment, the target named is T2, NgaP2 (Paenibacillus sp. TS12, UniProt A0AAT8XUB3).
T2 construct: cloned from genomic DNA, pET-47b(+), E. coli BL21 Star (DE3); His tag cut with HRV3C; monomer; not the GH123 NgaP of the same strain
T2 sequence (A0AAT8XUB3 4-581): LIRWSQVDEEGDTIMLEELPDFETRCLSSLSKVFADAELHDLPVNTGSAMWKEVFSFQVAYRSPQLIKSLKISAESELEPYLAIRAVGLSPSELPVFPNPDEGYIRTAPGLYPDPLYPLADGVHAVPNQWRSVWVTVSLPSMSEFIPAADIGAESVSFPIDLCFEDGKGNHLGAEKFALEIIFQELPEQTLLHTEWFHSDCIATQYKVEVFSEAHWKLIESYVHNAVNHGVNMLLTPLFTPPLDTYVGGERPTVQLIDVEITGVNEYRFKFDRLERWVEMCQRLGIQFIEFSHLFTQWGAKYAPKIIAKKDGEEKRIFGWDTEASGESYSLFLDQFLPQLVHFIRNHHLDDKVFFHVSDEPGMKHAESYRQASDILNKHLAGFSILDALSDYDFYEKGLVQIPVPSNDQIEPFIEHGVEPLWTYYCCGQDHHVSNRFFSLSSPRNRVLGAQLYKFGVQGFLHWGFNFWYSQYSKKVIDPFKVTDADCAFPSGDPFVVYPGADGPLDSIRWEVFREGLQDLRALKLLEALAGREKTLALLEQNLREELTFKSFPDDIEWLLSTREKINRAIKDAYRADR
In words: crystal structure of complex. The class given is binding. To be noted: 5 mM ligand in crystallization; active site, oxazolinium intermediate analogue.

Turning to `CC1=N[C@@H]2[C@@H](O)[C@@H](O)[C@@H](CO)O[C@@H]2S1` [GalNAc-thiazoline], the “crystal structure of complex” value was “the structures of the NgaAt, NgaDssm, and NgaP2 complexes with GalNAc-thiazoline were successfully characterized” at NgaDssm; “the structures of the NgaAt, NgaDssm, and NgaP2 complexes with GalNAc-thiazoline were successfully characterized” on NgaP2.
